Experiment: In vitro antioxidant effect by the inhibition of AAPH-induced lysis of human red blood cells (RBC)
Assay type: functional

| IC50 [µM] | SMILES |
| --- | --- |
| 89.4 | NCCS[C@H]1c2c(O)cc(O)cc2O[C@H](c2ccc(O)c(O)c2)[C@@H]1O |
| 74.9 | N[C@@H](CS[C@H]1c2c(O)cc(O)cc2O[C@H](c2ccc(O)c(O)c2)[C@@H]1O)C(=O)O |
| 120 | Oc1cc(O)c2c(c1)O[C@H](c1ccc(O)c(O)c1)[C@H](O)C2 [(-)-EPICATECHIN] |
